# Reference: patent US7799781B2, “5,6,7,8-tetrahydropteridine derivatives as HSP90 inhibitors” (AstraZeneca AB, priority 2007, dated 2010)
# Target: T1, HSP90α (Homo sapiens, UniProt P07900)
# T1 construct: 6H is tagged HSP90α protein (amino acids 2-732) expressed in E. coli; 6His; made in house; host or cells: E. coli
# Experiment: Test (a) In Vitro Binding Assay (fluorescence polarisation, binding to the ATP pocket of HSP90α)
# Conditions: FP probe displacement, geometric mean where tested more than once
# Procedure: Test (a) In Vitro Binding Assay
# Test (a) measures the ability of a compound to bind to the ATP pocket of HSP90α. 6H is tagged HSP90α protein (amino acids 2-732) expressed in E. coli was purified and stored at −80° C. in aliquots. Assay measurements were performed in assay buffer comprising 20 mM HEPES pH 7.4, 50 mM KCl, 20 mM NaHMoO4, 0.01% Nonidet P40, 2 mM DTT and 0.1 mg/ml BSA. Following resuspension in DMSO, the FP probe 3-[[5-(5-ethyl-2,4-dihydroxy-phenyl)-4-(4-methoxyphenyl)2H-pyrazole-3-carbonyl]amino]propyl-Cy3B-amide; 14-(2-{[3-({[3-(5-ethyl-2,4-dihydroxyphenyl)-4-(4-methoxyphenyl)-1H-pyrazol-5-yl]carbonyl}amino)propyl]amino}-2-oxoethyl)-16,16,18,18-tetramethyl-2-sulfo-6,7,7a,8a,9,10,16,18-octahydrobenzo[2″,3″]indolizino [8″,7″:5′,6′]pyrano[3′,2′:3,4]pyrido[1,2-a]indol-5-ium) was diluted to a final concentration of 5 nM in assay buffer. Test compounds were prepared by dilution in 100% DMSO to give the appropriate dose range and dispensed into a 384 well assay plate as a 6X concentrate. Upon addition of recombinant HSP90α to a final assay concentration of 1 μg/ml, FP probe was added and plates incubated at room temperature for 1 to 4 hours. Final DMSO concentration was 1% in a total assay volume of 18 μl. Fluorescence Polarisation measurements were made using a Tecan Ultra plate reader using an excitation wavelength of 530 nm and an emission wavelength of 590 nm. Millipolarisation (mP) values were estimated using Xfluor software.
# The data in the above table was generated in an assay substantially as described above in relation to in-vitro Binding Assay (a). Some of the compounds shown in the table were tested more than once in the assay. For those compounds the IC50 value shown is the geometric mean of the measured IC50 values. Therefore, as will be understood, the IC50 values quoted above are not absolute and further measurements of the IC50 values may result in a different mean IC50 value.
row,IC50,Compound
1,857 nM,"COc1c(C)cnc(CN2c3nc(N)ncc3NC(=O)[C@H]2C)c1C [Example 2.2, (7R)-2-amino-8-[(4-methoxy-3,5-dimethylpyridin-2-yl)methyl]-7-methyl-7,8-dihydropteridin-6(5H)-one]"
2,808 nM,"COc1c(C)cnc(CN2CC(=O)Nc3c(C)nc(N)nc32)c1C [Example 15, 2-amino-8-[(4-methoxy-3,5-dimethyl-pyridin-2-yl)methyl]-4-methyl-5,7-dihydropteridin-6-one]"
3,18400 nM,"COc1c(C)cnc(CN2c3nc(N)ncc3N(C)C(=O)[C@@H]2C)c1C [Example 3, (7S)-2-amino-8-[(4-methoxy-3,5-dimethylpyridin-2-yl)methyl]-5,7-dimethyl-7,8-dihydropteridin-6(5H)-one]"
4,100 nM,"COc1c(C)cnc(CN2CC(=O)Nc3c(Cl)nc(N)nc32)c1C [Example 8, 2-Amino-4-chloro-8-[(4-methoxy-3,5-dimethyl-pyridin-2-yl)methyl]-5,7-dihydropteridin-6-one]"
5,1940 nM,"COc1c(C)cnc(CN2c3nc(N)ncc3NC(=O)[C@H]2CC(C)C)c1C [Example 7.1, (7R)-2-amino-8-[(4-methoxy-3,5-dimethyl-pyridin-2-yl)methyl]-7-(2-methylpropyl)-7,8-dihydropteridin-6(5H)-one]"
6,10000 nM,"COc1c(C)cnc(CN2c3nc(N)ncc3NC(=O)[C@@H]2C)c1C [Example 1, (7S)-2-amino-8-[(4-methoxy-3,5-dimethylpyridin-2-yl)methyl]-7-methyl-7,8-dihydropteridin-6(5H)-one]"
7,324 nM,"COc1c(C)cnc(CN2c3nc(N)ncc3N(Cc3ccccc3)C(=O)[C@H]2C)c1C [Example 11.9, (7R)-2-amino-5-benzyl-8-[(4-methoxy-3,5-dimethylpyridin-2-yl)methyl]-7-methyl-7,8-dihydropteridin-6(5H)-one]"
8,526 nM,"COc1c(C)cnc(CN2c3nc(N)ncc3NC(=O)[C@H]2Cc2ccccc2)c1C [Example 7.2, (7R)-2-amino-7-benzyl-8-[(4-methoxy-3,5-dimethyl-pyridin-2-yl)methyl]-7,8-dihydropteridin-6(5H)-one]"
9,1220 nM,"COCCCN1C(=O)[C@@H](C)N(Cc2ncc(C)c(OC)c2C)c2nc(N)ncc21 [Example 10, (7R)-2-Amino-8-[(4-methoxy-3,5-dimethylpyridin-2-yl)methyl]-5-(3-methoxypropyl)-7-methyl-7,8-dihydropteridin-6(5H)-one]"
10,542 nM,"COc1c(C)cnc(CN2c3nc(N)ncc3N(CCc3cccnc3)C(=O)[C@H]2C)c1C [Example 11.16, (7R)-2-amino-8-[(4-methoxy-3,5-dimethylpyridin-2-yl)methyl]-7-methyl-5-(2-pyridin-3-ylethyl)-7,8-dihydropteridin-6(5H)-one]"
11,2400 nM,"COc1c(C)cnc(CN2c3nc(N)ncc3N(CCN3CCOCC3)C(=O)[C@H]2C)c1C [Example 11.14, (7R)-2-amino-8-[(4-methoxy-3,5-dimethylpyridin-2-yl)methyl]-7-methyl-5-(2-morpholin-4-ylethyl)-7,8-dihydropteridin-6(5H)-one]"
12,191 nM,"COc1c(C)cnc(CN2c3nc(N)ncc3N(CC(F)F)C(=O)[C@H]2C)c1C [Example 11.4, (7R)-2-amino-5-(2,2-difluoroethyl)-8-[(4-methoxy-3,5-dimethylpyridin-2-yl)methyl]-7-methyl-7,8-dihydropteridin-6(5H)-one]"
13,788 nM,"COc1c(C)cnc(CN2c3nc(N)ncc3N(C)C(=O)[C@H]2C)c1C [Example 4.2, (7R)-2-amino-8-[(4-methoxy-3,5-dimethylpyridin-2-yl)methyl]-5,7-dimethyl-7,8-dihydropteridin-6(5H)-one]"
14,803 nM,"COc1c(C)cnc(CN2c3nc(N)ncc3N(CC3CC3)C(=O)[C@H]2C)c1C [Example 11.10, (7R)-2-amino-5-(cyclopropylmethyl)-8-[(4-methoxy-3,5-dimethylpyridin-2-yl)methyl]-7-methyl-7,8-dihydropteridin-6(5H)-one]"
15,166 nM,"COc1c(C)cnc(CN2CC(=O)N(CCc3cccnc3)c3c(Cl)nc(N)nc32)c1C [Example 11.18, 2-amino-4-chloro-8-[(4-methoxy-3,5-dimethylpyridin-2-yl)methyl]-5-(2-pyridin-3-ylethyl)-7,8-dihydropteridin-6(5H)-one]"
16,563 nM,"COc1c(C)cnc(CN2c3nc(N)ncc3N(CCc3ccncc3)C(=O)[C@H]2C)c1C [Example 11.15, (7R)-2-amino-8-[(4-methoxy-3,5-dimethylpyridin-2-yl)methyl]-7-methyl-5-(2-pyridin-4-ylethyl)-7,8-dihydropteridin-6(5H)-one]"
17,7340 nM,"COc1c(C)cnc(CN2c3nc(N)ncc3NC(=O)[C@H]2CC(=O)O)c1C [Example 12, {(7R)-2-amino-8-[(4-methoxy-3,5-dimethylpyridin-2-yl)methyl]-6-oxo-5,6,7,8-tetrahydropteridin-7-yl}acetic acid]"
18,128 nM,"COc1c(C)cnc(CN2c3nc(N)ncc3N(CCc3ccccc3)C(=O)[C@H]2C)c1C [Example 11.2, (7R)-2-amino-8-[(4-methoxy-3,5-dimethylpyridin-2-yl)methyl]-7-methyl-5-(2-phenylethyl)-7,8-dihydropteridin-6(5H)-one]"
19,1630 nM,"COc1c(C)cnc(CN2c3nc(N)ncc3NC(=O)[C@H]2CC(=O)NCCCN(C)C)c1C [Example 14.1, 2-{(7R)-2-amino-8-[(4-methoxy-3,5-dimethylpyridin-2-yl)methyl]-6-oxo-5,6,7,8-tetrahydropteridin-7-yl}-N-[3-(dimethylamino)propyl]acetamide]"
20,15600 nM,"COc1c(C)cnc(CN2c3nc(N)ncc3N(C)C[C@H]2C)c1C [Example 6.3, (7R)-8-[(4-methoxy-3,5-dimethylpyridin-2-yl)methyl]-5,7-dimethyl-5,6,7,8-tetrahydropteridin-2-amine]"
21,552 nM,"CCCN1C(=O)[C@@H](C)N(Cc2ncc(C)c(OC)c2C)c2nc(N)ncc21 [Example 11.8, (7R)-2-amino-8-[(4-methoxy-3,5-dimethylpyridin-2-yl)methyl]-7-methyl-5-propyl-7,8-dihydropteridin-6(5H)-one]"
22,1940 nM,"COCCCN1C(=O)CN(Cc2ncc(C)c(OC)c2C)c2nc(N)ncc21 [Example 11.1, 2-amino-8-[(4-methoxy-3,5-dimethylpyridin-2-yl)methyl]-5-(3-methoxypropyl)-7,8-dihydropteridin-6(5H)-one]"
23,14800 nM,"CCC[C@H]1C(=O)Nc2cnc(N)nc2N1Cc1ncc(C)c(OC)c1C [Example 2.1, (7S)-2-amino-8-[(4-methoxy-3,5-dimethylpyridin-2-yl)methyl]-7-propyl-7,8-dihydropteridin-6(5H)-one]"
24,1800 nM,"CCC[C@@H]1C(=O)Nc2cnc(N)nc2N1Cc1ncc(C)c(OC)c1C [Example 7.4, (7R)-2-amino-8-[(4-methoxy-3,5-dimethyl-pyridin-2-yl)methyl]-7-propyl-7,8-dihydropteridin-6(5H)-one]"
25,288 nM,"COc1c(C)cnc(CN2CC(=O)N(Cc3ccccc3)c3c(Cl)nc(N)nc32)c1C [Example 11.22, 2-amino-5-benzyl-4-chloro-8-[(4-methoxy-3,5-dimethylpyridin-2-yl)methyl]-7,8-dihydropteridin-6(5H)-one]"
26,325 nM,"COC(=O)C[C@@H]1C(=O)Nc2cnc(N)nc2N1Cc1ncc(C)c(OC)c1C [Example 7.3, Methyl {(7R)-2-amino-8-[(4-methoxy-3,5-dimethylpyridin-2-yl)methyl]-6-oxo-5,6,7,8-tetrahydropteridin-7-yl}acetate]"
27,152000 nM,"COc1c(C)cnc(CN2c3nc(N)ncc3N(C)C[C@@H]2C)c1C [Example 6.1, (7S)-8-[(4-methoxy-3,5-dimethylpyridin-2-yl)methyl]-5,7-dimethyl-5,6,7,8-tetrahydropteridin-2-amine]"
28,1620 nM,"COc1c(C)cnc(CN2c3nc(N)ncc3NC(=O)[C@H]2CC(=O)NCCN(C)C)c1C [Example 14.2, 2-{(7R)-2-amino-8-[(4-methoxy-3,5-dimethylpyridin-2-yl)methyl]-6-oxo-5,6,7,8-tetrahydropteridin-7-yl}-N-[2-(dimethylamino)ethyl]acetamide]"
29,1390 nM,"COc1c(C)cnc(CN2CC(=O)Nc3c(SC)nc(N)nc32)c1C [Example 9, 2-Amino-8-[(4-methoxy-3,5-dimethyl-pyridin-2-yl)methyl]-4-methylsulfanyl-5,7-dihydropteridin-6-one]"
30,7830 nM,"COc1c(C)cnc(CN2c3nc(N)ncc3N(CCN3CCNCC3)C(=O)[C@H]2C)c1C [Example 11.3, (7R)-2-amino-8-[(4-methoxy-3,5-dimethylpyridin-2-yl)methyl]-7-methyl-5-(2-piperazin-1-ylethyl)-7,8-dihydropteridin-6(5H)-one]"

# Same assay, conditions: verbal assessment
row,"activity in the enzyme assay, test (a)",Compound
1,low activity,"COc1c(C)cnc(CN2c3nc(N)ncc3N(C)C[C@@H]2C)c1C [Example 6.1, (7S)-8-[(4-methoxy-3,5-dimethylpyridin-2-yl)methyl]-5,7-dimethyl-5,6,7,8-tetrahydropteridin-2-amine]"
